How the values were obtained:
[1] = system: phosphorylated AKT Ser473 (pAKT S473), mTORC2 activity, PC3 cells; assay: mTOR target engagement assay, immunofluorescent cell-based, pAKT S473 readout (mTORC2 activity); conditions: Homo sapiens, PC-3, PC3 cells, compound treatment ninety minutes at 37° C.
Summary of the method: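 After blocking, cells were stained overnight at 4 °C with anti-pAKT S473 antibody, then a fluorescent secondary; inhibition was read as reduced fluorescence intensity.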

[2] = system: phosphorylated 4E-BP1 Thr37/46 (p4E-BP1 Thr37/46), mTORC1 activity, PC3 cells; assay: mTOR target engagement assay, immunofluorescent cell-based, p4E-BP1 Thr37/46 readout (mTORC1 activity); conditions: Homo sapiens, PC-3, PC3 cells, compound treatment ninety minutes at 37° C.; read-out: p4E-BP1 Thr37/46 IC50
Summary of the method: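 Seed PC3 cells overnight; treat with compound dilutions for ninety minutes at 37° C; fix with glyoxal and block; stain with anti-p4E-BP1 Thr37/46 overnight at 4° C, then fluorescent secondary; read fluorescence and fit IC50 against DMSO-only controls.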

CC(=O)c1c([C@@H]2C[C@H]3CC[C@@H](C2)N3C(=O)c2nnc[nH]2)nc2c(-c3ccc(-c4ccn(CF)n4)nc3)cnn2c1N [Compound 1.1.86, 1-(5-((1R,3s,5S)-8-(4H-1,2,4-triazole-3-carbonyl)-8-azabicyclo[3.2.1]octan-3-yl)-7-amino-3-(6-(1-(fluoromethyl)-1H-pyrazol-3-yl)pyridin-3-yl)pyrazolo[1,5-a]pyrimidin-6-yl)ethanone]
IC50 [1]: 1 to 100 nM | IC50 [2]: 1 to 100 nM

CC(=O)c1c([C@@H]2C[C@H]3CC[C@@H](C2)N3C(=O)CO)nc2c(-c3ccc(-c4ccn(CF)n4)nc3)cnn2c1N [Compound 1.1.87, 1-((1R,3s,5S)-3-(6-acetyl-7-amino-3-(6-(1-(fluoromethyl)-1H-pyrazol-3-yl)pyridin-3-yl)pyrazolo[1,5-a]pyrimidin-5-yl)-8-azabicyclo[3.2.1]octan-8-yl)-2-hydroxyethanone]
IC50 [1]: 1 to 100 nM | IC50 [2]: 1 to 100 nM

CC(=O)c1c([C@@H]2C[C@H]3CC[C@@H](C2)N3C(=O)c2nnc[nH]2)nc2c(-c3ccc(-c4ncn(C)n4)nc3)cnn2c1N [Compound 1.1.88, 1-(5-((1R,3s,5S)-8-(4H-1,2,4-triazole-3-carbonyl)-8-azabicyclo[3.2.1]octan-3-yl)-7-amino-3-(6-(1-methyl-1H-1,2,4-triazol-3-yl)pyridin-3-yl)pyrazolo[1,5-a]pyrimidin-6-yl)ethanone]
IC50 [1]: 1 to 100 nM | IC50 [2]: 1 to 100 nM

CC(=O)c1c([C@@H]2C[C@H]3CC[C@@H](C2)N3C(=O)CO)nc2c(-c3ccc(-c4ncn(C)n4)nc3)cnn2c1N [Compound 1.1.89, 1-((1R,3s,5S)-3-(6-acetyl-7-amino-3-(6-(1-methyl-1H-1,2,4-triazol-3-yl)pyridin-3-yl)pyrazolo[1,5-a]pyrimidin-5-yl)-8-azabicyclo[3.2.1]octan-8-yl)-2-hydroxyethanone]
IC50 [1]: 100 to 1000 nM | IC50 [2]: 100 to 1000 nM

CC(=O)c1c([C@@H]2C[C@H]3CC[C@@H](C2)N3C(=O)CO)nc2c(-c3ccc(C)nc3)cnn2c1N [Compound 1.1.90, 1-((1R,3s,5S)-3-(6-acetyl-7-amino-3-(6-methylpyridin-3-yl)pyrazolo[1,5-a]pyrimidin-5-yl)-8-azabicyclo[3.2.1]octan-8-yl)-2-hydroxyethanone]
IC50 [1]: 1000 to 10000 nM | IC50 [2]: 1000 to 10000 nM

CC(=O)c1c([C@@H]2C[C@H]3CC[C@@H](C2)N3C(=O)c2nnc[nH]2)nc2c(-c3ccc(-c4nc[nH]n4)nc3)cnn2c1N [Compound 1.1.91, 1-(3-(6-(1H-1,2,4-triazol-3-yl)pyridin-3-yl)-5-((1R,3s,5S)-8-(4H-1,2,4-triazole-3-carbonyl)-8-azabicyclo[3.2.1]octan-3-yl)-7-aminopyrazolo[1,5-a]pyrimidin-6-yl)ethanone]
IC50 [1]: 1 to 100 nM | IC50 [2]: 1 to 100 nM

CC(=O)c1c([C@@H]2C[C@H]3CC[C@@H](C2)N3C(=O)CO)nc2c(-c3ccc(-c4nn(C)cc4F)nc3)cnn2c1N [Compound 1.1.94, 1-((1R,3s,5S)-3-(6-acetyl-7-amino-3-(6-(4-fluoro-1-methyl-1H-pyrazol-3-yl)pyridin-3-yl)pyrazolo[1,5-a]pyrimidin-5-yl)-8-azabicyclo[3.2.1]octan-8-yl)-2-hydroxyethanone]
IC50 [1]: 100 to 1000 nM | IC50 [2]: 100 to 1000 nM

CC(=O)c1c([C@@H]2C[C@H]3CC[C@@H](C2)N3C(=O)c2nnc[nH]2)nc2c(-c3ccc(-c4cc(C)[nH]n4)nc3)cnn2c1N [Compound 1.1.95, 1-(5-((1R,3s,5S)-8-(4H-1,2,4-triazole-3-carbonyl)-8-azabicyclo[3.2.1]octan-3-yl)-7-amino-3-(6-(5-methyl-1H-pyrazol-3-yl)pyridin-3-yl)pyrazolo[1,5-a]pyrimidin-6-yl)ethanone]
IC50 [1]: 1000 to 10000 nM | IC50 [2]: 1000 to 10000 nM

CC(=O)c1c([C@@H]2C[C@H]3CC[C@@H](C2)N3C(=O)CO)nc2c(-c3ccc(-c4cc(C)[nH]n4)nc3)cnn2c1N [Compound 1.1.96, 1-((1R,3s,5S)-3-(6-acetyl-7-amino-3-(6-(5-methyl-1H-pyrazol-3-yl)pyridin-3-yl)pyrazolo[1,5-a]pyrimidin-5-yl)-8-azabicyclo[3.2.1]octan-8-yl)-2-hydroxyethanone]
IC50 [1]: > 10000 nM | IC50 [2]: > 10000 nM

CCc1ccc(-c2cnn3c(N)c(C(C)=O)c([C@@H]4C[C@H]5CC[C@@H](C4)N5C(=O)c4nnc[nH]4)nc23)cn1 [Compound 1.1.99, 1-(5-((1R,3s,5S)-8-(4H-1,2,4-triazole-3-carbonyl)-8-azabicyclo[3.2.1]octan-3-yl)-7-amino-3-(6-ethylpyridin-3-yl)pyrazolo[1,5-a]pyrimidin-6-yl)ethanone]
IC50 [1]: 1 to 100 nM | IC50 [2]: 1 to 100 nM

CC(=O)c1c([C@@H]2C[C@H]3CC[C@@H](C2)N3C(=O)c2nnc[nH]2)nc2c(-c3ccc(-c4cc(F)cc(F)c4)nc3)cnn2c1N [Compound 1.1.100, 1-(5-((1R,3r,5S)-8-(4H-1,2,4-triazole-3-carbonyl)-8-azabicyclo[3.2.1]octan-3-yl)-7-amino-3-(6-(3,5-difluorophenyl)pyridin-3-yl)pyrazolo[1,5-a]pyrimidin-6-yl)ethanone]
IC50 [1]: 100 to 1000 nM | IC50 [2]: 100 to 1000 nM

CC(=O)c1c([C@@H]2C[C@H]3CC[C@@H](C2)N3C(=O)CO)nc2c(-c3ccc(-c4cc(F)cc(F)c4)nc3)cnn2c1N [Compound 1.1.101, 1-((1R,3r,5S)-3-(6-acetyl-7-amino-3-(6-(3,5-difluorophenyl)pyridin-3-yl)pyrazolo[1,5-a]pyrimidin-5-yl)-8-azabicyclo[3.2.1]octan-8-yl)-2-hydroxyethanone]
IC50 [1]: 100 to 1000 nM | IC50 [2]: 100 to 1000 nM

CC(=O)c1c([C@@H]2C[C@H]3CC[C@@H](C2)N3C(=O)CO)nc2c(-c3ccc(-c4nc[nH]n4)nc3)cnn2c1N [Compound 1.1.102, 1-((1R,3s,5S)-3-(3-(6-(1H-1,2,4-triazol-3-yl)pyridin-3-yl)-6-acetyl-7-aminopyrazolo[1,5-a]pyrimidin-5-yl)-8-azabicyclo[3.2.1]octan-8-yl)-2-hydroxyethanone]
IC50 [1]: 1 to 100 nM | IC50 [2]: 1 to 100 nM

CC(=O)c1c([C@@H]2C[C@H]3CC[C@@H](C2)N3C(=O)c2nnc[nH]2)nc2c(-c3ccc(-c4cccc(F)c4)nc3)cnn2c1N [Compound 1.1.103, 1-(5-((1R,3r,5S)-8-(4H-1,2,4-triazole-3-carbonyl)-8-azabicyclo[3.2.1]octan-3-yl)-7-amino-3-(6-(3-fluorophenyl)pyridin-3-yl)pyrazolo[1,5-a]pyrimidin-6-yl)ethanone]
IC50 [1]: 1 to 100 nM | IC50 [2]: 1 to 100 nM

CC(=O)c1c([C@@H]2C[C@H]3CC[C@@H](C2)N3C(=O)c2nnc[nH]2)nc2c(-c3ccc(C(F)(F)F)nc3)cnn2c1N [Compound 1.1.104, 1-(5-((1R,3s,5S)-8-(4H-1,2,4-triazole-3-carbonyl)-8-azabicyclo[3.2.1]octan-3-yl)-7-amino-3-(6-(trifluoromethyl)pyridin-3-yl)pyrazolo[1,5-a]pyrimidin-6-yl)ethanone]
IC50 [1]: 100 to 1000 nM | IC50 [2]: 100 to 1000 nM

CC(=O)c1c([C@@H]2C[C@H]3CC[C@@H](C2)N3C(=O)CO)nc2c(-c3ccc(-c4cccc(F)c4)nc3)cnn2c1N [Compound 1.1.105, 1-((1R,3r,5S)-3-(6-acetyl-7-amino-3-(6-(3-fluorophenyl)pyridin-3-yl)pyrazolo[1,5-a]pyrimidin-5-yl)-8-azabicyclo[3.2.1]octan-8-yl)-2-hydroxyethanone]
IC50 [1]: 100 to 1000 nM | IC50 [2]: 100 to 1000 nM

CC(=O)c1c([C@@H]2C[C@H]3CC[C@@H](C2)N3C(=O)c2nnc[nH]2)nc2c(-c3ccc(-c4nn(C)cc4F)nc3)cnn2c1N [Compound 1.1.106, 1-(5-((1R,3s,5S)-8-(4H-1,2,4-triazole-3-carbonyl)-8-azabicyclo[3.2.1]octan-3-yl)-7-amino-3-(6-(4-fluoro-1-methyl-1H-pyrazol-3-yl)pyridin-3-yl)pyrazolo[1,5-a]pyrimidin-6-yl)ethanone]
IC50 [1]: 1 to 100 nM | IC50 [2]: 1 to 100 nM

CC(=O)c1c([C@@H]2C[C@H]3CC[C@@H](C2)N3C(=O)c2nnc[nH]2)nc2c(-c3ccc(-c4cn(C)cn4)nc3)cnn2c1N [Compound 1.1.108, 1-(5-((1R,3s,5S)-8-(4H-1,2,4-triazole-3-carbonyl)-8-azabicyclo[3.2.1]octan-3-yl)-7-amino-3-(6-(1-methyl-1H-imidazol-4-yl)pyridin-3-yl)pyrazolo[1,5-a]pyrimidin-6-yl)ethanone]
IC50 [1]: 1000 to 10000 nM | IC50 [2]: 1000 to 10000 nM

CC(=O)c1c([C@@H]2C[C@H]3CC[C@@H](C2)N3C(=O)c2nnc[nH]2)nc2c(-c3cnc(-c4cc[nH]n4)c(F)c3)cnn2c1N [Compound 1.1.110, 1-(5-((1R,3s,5S)-8-(4H-1,2,4-triazole-3-carbonyl)-8-azabicyclo[3.2.1]octan-3-yl)-7-amino-3-(5-fluoro-6-(1H-pyrazol-3-yl)pyridin-3-yl)pyrazolo[1,5-a]pyrimidin-6-yl)ethanone]
IC50 [1]: 100 to 1000 nM | IC50 [2]: 100 to 1000 nM

CC(=O)c1c([C@@H]2C[C@H]3CC[C@@H](C2)N3C(=O)CO)nc2c(-c3cnc(-c4cc[nH]n4)c(F)c3)cnn2c1N [Compound 1.1.111, 1-((1R,3s,5S)-3-(6-acetyl-7-amino-3-(5-fluoro-6-(1H-pyrazol-3-yl)pyridin-3-yl)pyrazolo[1,5-a]pyrimidin-5-yl)-8-azabicyclo[3.2.1]octan-8-yl)-2-hydroxyethanone]
IC50 [1]: 1000 to 10000 nM | IC50 [2]: 1000 to 10000 nM

CC(=O)c1c([C@@H]2C[C@H]3CC[C@@H](C2)N3C(=O)c2nnc[nH]2)nc2c(-c3cnc(-c4ccn(C)n4)c(F)c3)cnn2c1N [Compound 1.1.112, 1-(5-((1R,3s,5S)-8-(4H-1,2,4-triazole-3-carbonyl)-8-azabicyclo[3.2.1]octan-3-yl)-7-amino-3-(5-fluoro-6-(1-methyl-1H-pyrazol-3-yl)pyridin-3-yl)pyrazolo[1,5-a]pyrimidin-6-yl)ethanone]
IC50 [1]: 1000 to 10000 nM | IC50 [2]: 1000 to 10000 nM

Source: patent US9227971B2, “Pyrazolo[1,5-a]pyrimidine compounds as mTOR inhibitors” (Merck Sharp & Dohme Corp., priority 2010, dated 2016)
